Source: patent US20230092679A1, “MCL-1 INHIBITOR ANTIBODY-DRUG CONJUGATES AND METHODS OF USE” (NOVARTIS AG, priority 2019, published 2023)

Key:
Assay type in all cases: cell-based
KMS-20 = assay: CellTiter-Glo proliferation assay, anti-CD48 ADCs (Example 18); conditions: KMS-20, 5 days
Method: (§1) The CD48 MCL-1 antibody drug conjugate CD48-L7-P1, isotype IgG1-L7-P1 ADC, and MCL-1 free payload P1 were tested against four endogenous cancer cell lines. KMS-21 BM (JCRB No. JCRB11185 cultured in RPMI-1640+10% FBS), KMS-20 (JCRB No. JCRB1196 cultured in RPMI-1640+10% FBS), KMS-27 (JCRB No. JCRB1188 cultured in RPMI-1640+10% FBS), and NCI-H929 (ATCC No. CRL-9068 cultured in RPMI-1640+10% FBS+0.05 mM 2-mercaptoethanol).
(§2) The ability of the CD48 MCL-1 antibody drug conjugate CD48-L7-P1, isotype IgG1-L7-P1 ADC, and MCL-1 free payload P1 to inhibit cell proliferation and survival was assessed using the Promega CellTiter-Glo® proliferation assay.
(§3) Cell lines were cultured in media that is optimal for their growth at 5% CO2, 37° C. in a tissue culture incubator. Prior to seeding for the proliferation assay, the cells were split at least 2 days before the assay to ensure optimal growth density. On the day of seeding, suspension cells were harvested. Cell viability and cell density were determined using a cell counter (Vi-Cell XR Cell Viability Analyzer, Beckman Coulter). […] Cells were seeded at a density of 1,000 cells per well in 45 μL of standard growth media. Plates were incubated at 5% CO2, 37° C. overnight in a tissue culture incubator. The next day, free MCL-1 payload (P1), targeting MCL-1 ADC, and non-targeting isotype ADCs were prepared at 10× in standard growth media. The prepared drug treatments were then added to the cells resulting in final concentrations of 0.0005-500 nM and a final volume of 50 μL per well. Each drug concentration was tested in quadruplets. Plates were incubated at 5% CO2, 37° C. for 5 days in a tissue culture incubator, after which cell viability was assessed through the addition of 25 μL of CellTiter Glo® (Promega, cat #G7573), a reagent which lyses cells and measures total adenosine triphosphate (ATP) content. Plates were incubated at room temperature for 10 minutes to stabilize luminescent signals prior to reading using a luminescence reader (EnVision Multilabel Plate Reader, PerkinElmer). To evaluate the effect of the drug treatments, luminescent counts from wells containing untreated cells (100% viability) were used to normalize treated samples. A variable slope model was applied to fit a nonlinear regression curve to the data in GraphPad PRISM version 7.02 software. IC50 and Amax values were extrapolated from the resultant curves.
(§4) The dose response curves of representative cancer cell lines expressing the CD48 target of interest are shown in FIG. 22 (square=CD48-L7-P1, circle IgG-L7-P1, triangle=free MCL1 payload P1).

KMS-21 BM = assay: as above; conditions: 5 days
Method: as §1, §2, §3, §4

KMS-27 = assay: as above; conditions: KMS-27, 5 days
Method: as §1, §2, §3, §4

NCI-H929 = assay: as above; conditions: NCI-H929, 5 days
Method: as §1, §2, §3, §4

cmk = assay: In vitro ADC activity, AML cell lines, CellTiter-Glo (Example 20); conditions: 5 days
f36p = assay: as above; conditions: 5 days
mv411 = assay: as above; conditions: mv411, 5 days
nomo1 = assay: as above; conditions: nomo1, 5 days
ociaml5 = assay: as above; conditions: ociaml5, 5 days
various MM cell lines = assay: In vitro ADC activity, MM cell lines, CellTiter-Glo (Example 20, Table 39); conditions: 5 days treatment; for Amax: in %

## COc1ccccc1-c1nccc(COc2ccccc2C[C@@H](Oc2ncnc3sc(-c4ccc(F)cc4)c(-c4ccc(OCCN5CCN(C)CC5)c(Cl)c4C)c23)C(=O)O)n1 [P1, (2R)-2-[5-[3-chloro-2-methyl-4-[2-(4-methylpiperazin-1-yl)ethoxy]phenyl]-6-(4-fluorophenyl)thieno[2,3-d]pyrimidin-4-yl]oxy-3-[2-[[2-(2-methoxyphenyl)pyrimidin-4-yl]methoxy]phenyl]propanoic acid]
KMS-20; 120 h
  IC50: 4.95 nM
KMS-20; in %
  Amax: 94.34
KMS-21 BM; 120 h
  IC50: 0.941 nM
KMS-21 BM; in %
  Amax: 85.27
KMS-27; 120 h
  IC50: 6.98 nM
KMS-27; in %
  Amax: 88.98
NCI-H929; Homo sapiens, 120 h
  IC50: 2.04 nM
NCI-H929; in %
  Amax: 109.1
cmk; unit assumed
  Amax: 100%
cmk; Homo sapiens, 120 h
  GI50: > 10000 nM
f36p; 120 h
  GI50: > 10000 nM
f36p; unit assumed
  Amax: 51%
mv411; Homo sapiens, MV4-11, 120 h
  GI50: 1 nM
mv411; in % (unit assumed)
  Amax: −72
nomo1; Homo sapiens, NOMO-1, 120 h
  GI50: 1 nM
nomo1; in % (unit assumed)
  Amax: −80
ociaml5; Homo sapiens, OCI-AML-5, 120 h
  GI50: 265 nM
ociaml5; unit assumed
  Amax: 4%
Various MM cell lines; 120 h, Ip1 cell line
  GI50: 7 nM
Various MM cell lines; 120 h, u266b1 cell line
  GI50: 283 nM
Various MM cell lines; Homo sapiens, AMO1, 120 h, amo1 cell line
  GI50: 5 nM
Various MM cell lines; Homo sapiens, EJM, 120 h, ejm cell line
  GI50: 61 nM
Various MM cell lines; Homo sapiens, KMS-11, 120 h, kms11 cell line
  GI50: 98 nM
Various MM cell lines; Homo sapiens, KMS-12-BM, 120 h, kms12bm cell line
  GI50: 11 nM
Various MM cell lines; Homo sapiens, L-363, 120 h, L363 cell line
  GI50: 3 nM
Various MM cell lines; Homo sapiens, MOLP-8, 120 h, molp8 cell line
  GI50: 1 nM
Various MM cell lines; Homo sapiens, NCI-H929, 120 h, h929 cell line
  GI50: 1 nM
Various MM cell lines; Homo sapiens, OPM-2, 120 h, opm2 cell line
  GI50: 1 nM
Various MM cell lines; Homo sapiens, RPMI-8226, 120 h, rpmi8226 cell line
  GI50: 2 nM
Various MM cell lines; Homo sapiens, SK-MM-2, 120 h, skmm2 cell line
  GI50: > 10000 nM
Various MM cell lines; Ip1 cell line
  Amax: −58
Various MM cell lines; KE-97, 120 h, ke97 cell line
  GI50: 7910 nM
Various MM cell lines; KHM-1B, 120 h, khm1b cell line
  GI50: 2 nM
Various MM cell lines; KMM-1, 120 h, kmm1 cell line
  GI50: 154 nM
Various MM cell lines; KMS-20, 120 h, kms20 cell line
  GI50: 8 nM
Various MM cell lines; KMS-21BM, 120 h, kms21bm cell line
  GI50: 1 nM
Various MM cell lines; KMS-26, 120 h, kms26 cell line
  GI50: 60 nM
Various MM cell lines; KMS-27, 120 h, kms27 cell line
  GI50: 1 nM
Various MM cell lines; KMS-28BM, 120 h, kms28bm cell line
  GI50: 6 nM
Various MM cell lines; KMS-34, 120 h, kms34 cell line
  GI50: 498 nM
Various MM cell lines; Karpas-620, 120 h, karpas620 cell line
  GI50: 205 nM
Various MM cell lines; L363 cell line
  Amax: −47
Various MM cell lines; amo1 cell line
  Amax: −20
Various MM cell lines; ejm cell line
  Amax: −93
Various MM cell lines; h929 cell line
  Amax: −74
Various MM cell lines; karpas620 cell line
  Amax: −43
Various MM cell lines; ke97 cell line
  Amax: 21
Various MM cell lines; khm1b cell line
  Amax: −84
Various MM cell lines; kmm1 cell line
  Amax: −67
Various MM cell lines; kms11 cell line
  Amax: −62
Various MM cell lines; kms12bm cell line
  Amax: −79
Various MM cell lines; kms20 cell line
  Amax: −88
Various MM cell lines; kms21bm cell line
  Amax: −76
Various MM cell lines; kms26 cell line
  Amax: −49
Various MM cell lines; kms27 cell line
  Amax: −89
Various MM cell lines; kms28bm cell line
  Amax: −42
Various MM cell lines; kms34 cell line
  Amax: −64
Various MM cell lines; molp8 cell line
  Amax: −74
Various MM cell lines; opm2 cell line
  Amax: −77
Various MM cell lines; rpmi8226 cell line
  Amax: −91
Various MM cell lines; skmm2 cell line
  Amax: 112
Various MM cell lines; u266b1 cell line
  Amax: −24
